# Measured values reported in paper PMC5556071, “ATR inhibition facilitates targeting of leukemia dependence on convergent nucleotide biosynthetic pathways” (Nature Communications, 2017).
# Values joined by “and” are separate entries in the source; they are usually repeats but may differ in a detail not shown here. Identical values can stand only once.
# System: CEM cells
# Assay: Non-targeted LC-MS metabolite profiling: percent [13C6]glucose labeling and relative metabolite levels
# Format: cell-based, human
# Conditions: CEM cells, 12 h following release from G1 arrest, replicates #1-#6
# From the text: To further investigate the functions of dCK and ATR at the G1/S transition in CEM cells, a non-targeted liquid chromatography mass spectrometry (LC-MS) assay was used to determine the utilization of labeled [^13C6]glucose and [^13C9,^15N3]deoxycytidine, the main substrates for de novo and salvage nucleotide biosynthesis, respectively. Of the 166 metabolites identified in CEM cells treated with VE-822 and/or dCKi, 105 metabolites found in all four treatment groups contained glucose-derived ^13C atoms. […] These metabolites included intermediates such as rUTP, rCTP and rCDP in the de novo dCTP biosynthesis (Fig. 1d). […] However, several deoxyribonucleotides, including dCTP, were below the limit of detection of the non-targeted LC-MS approach, raising the concern that the sensitivity of this assay is not sufficient to measure the contribution of the salvage pathway or the ratio of de novo and salvage biosynthesis to these pools. To address this problem, a newly developed targeted MS assay was developed (Fig. 1e and Supplementary Fig. 3). In this assay, samples containing either extracted dNTPs or hydrolyzed DNA from labeled cells are separated by LC for detection by a triple quadrupole mass spectrometer using multiple reaction monitoring (LC-MS/MS-MRM). The first (Q1) and third (Q3) quadrupoles function as mass filters, while the second (Q2) quadrupole serves as a collision chamber (Fig. 1e). For instance, to profile the biosynthetic composition of deoxycytidine (dC) derived from hydrolyzed DNA or dCTP, an intact, protonated dC ion is selected in Q1, followed by fragmentation of the glycosidic bond, which releases protonated cytosine in Q2, that is filtered in Q3 and detected to generate an ion chromatogram. The peak areas for the ion chromatograms of salvage [^13C9,^15N3]dC (red trace), de novo [^13C5]dC (black trace, from [^13C6]glucose) and unlabeled dC (gray trace) (Fig. 1e) are used to determine the relative contributions of the de novo and salvage routes both to dCTP pools and to DNA-incorporated dCTP.
# Cells were transferred into RPMI-1640 without glucose and supplemented with 10% dialyzed FBS (Gibco) containing the following labeled substrates: precursors for de novo [U-^13C6]glucose (Sigma-Aldrich, 389374) at 11 mM; precursors for purine salvage [U-^13C10,^15N5]dA (Cambridge Isotopes, CIL 3896), [^15N5]dA (Cambridge Isotopes, NLM-3895) and [^15N5]dG (Cambridge Isotopes, NLM-3899) at 5 µM or as indicated; and precursors for pyrimidine salvage: [U-^13C9,^15N3]dC (Silantes, 124603602) and [U-^13C10,^15N2]dT (Cambridge Isotopes, CNLM-3902) at 5 µM and [^15N2]orotate (Cambridge Isotopes, NLM-1048) at indicated concentrations. The cells were incubated for 12 h or as indicated before sample collection and processing. […]
# Non-targeted LC-MS metabolic assays. 1 x 10^6 cells were washed with ice-cold 150 mM ammonium acetate twice before adding 1 mL of ice-cold 80% methanol with 10 nM norvaline as an internal standard. After vigorous vortexing, samples were centrifuged at maximum speed, the aqueous layer was transferred to a glass vial and the metabolites were dried under vacuum. Metabolites were resuspended in 50 μL 70% acetonitrile (ACN) and 5 μL of this solution used for the mass spectrometer-based analysis. The analysis was performed on a Q Exactive (Thermo Scientific) in polarity-switching mode with positive voltage 4.0 kV and negative voltage 4.0 kV. The mass spectrometer was coupled to an UltiMate 3000RSLC (Thermo Scientific) UHPLC system. Mobile phase A was 5 mM ammonium acetate (NH4AcO), pH 9.9, B was acetonitrile and the separation achieved on a Luna […] NH2 100 A column (150 × 2.0 mm, Phenomenex). The flow was 200 μL/min, and the gradient ran from 15% A to 95% A in 18 min, followed by an isocratic step for 9 min and re-equilibration for 7 min. Metabolites were detected and quantified as area under the curve based on retention time and accurate mass (≤ 3 p.p.m.) using the TraceFinder 3.1 (Thermo Scientific). Relative amounts of […]
compound,measurement,setting,value
COc1ccc(-c2nc([C@@H](C)Sc3nc(N)cc(N)n3)c(C)s2)cc1OCCNS(C)(=O)=O [dCKi],"Glucose labeling, Trp (C00078)",,0.00%
same,"Glucose labeling, Val (C00183)",,0.00%
same,"Relative level, PEP",,0.343
same,"Glucose labeling, Isocaproate",listed as D,0.00% (5×) and -2.22e-14%
same,"Glucose labeling, Lac",listed as D,17.43% and 30.68% and 33.28% and 15.68% and 13.00% and 14.89%
same,"Glucose labeling, Leu/Ile",listed as D,-2.22e-14% and 0.00% (4×) and 1.11e-14%
same,"Glucose labeling, Mal",listed as D,22.81% and 24.17% and 24.40% and 21.37% and 22.21% and 23.38%
same,"Glucose labeling, Met",listed as D,0.00216% and 0.00198% and 0.00236% and 0.00202% and 0.00192% and 0.00223%
same,"Glucose labeling, N-Carbamoyl-L-aspartate",listed as D,0.000983% and 0.12% (2×) and 0.00101% and 100.00% (2×)
same,"Glucose labeling, NADP+",listed as D,100.00% (4×) and 0.00% (2×)
same,"Glucose labeling, Ornithine",listed as D,0.08% (2×) and 0.12% (3×) and 0.09%
same,"Glucose labeling, Orotate",listed as D,5.20% and 3.14% and 4.02% and 100.00% and 0.12% (2×)
same,"Glucose labeling, Orotidine",listed as D,49.18% and 49.16% and 49.11% and 54.80% and 53.82% and 55.45%
same,"Glucose labeling, P-Choline",listed as D,0.00228% and 0.00166% (2×) and 0.00229% and 0.00101% and 0.00171%
same,"Glucose labeling, P-Ser",listed as D,21.30% and 20.75% and 19.61% and 16.22% and 19.77% and 14.08%
same,"Glucose labeling, Palmitate",listed as D,0.0136% and 0.0179% and 0.09% and 0.03% and 0.0457% and 0.04%
same,"Glucose labeling, Pantothenate",listed as D,0.00% (5×) and 1.11e-14%
same,"Glucose labeling, Pro",listed as D,9.90% and 11.07% and 10.77% and 9.63% and 9.83% and 9.85%
same,"Glucose labeling, Pro-OH",listed as D,0.00135% and 0.00138% and 0.000869% and 0.0017% and 0.00248% and 0.00239%
same,"Glucose labeling, R5P",listed as D,87.51% and 100.00% (5×)
same,"Glucose labeling, S7P",listed as D,85.34% and 43.01% and 49.65% and 0.26% and 34.90% and 73.97%
same,"Glucose labeling, SAM",listed as D,73.81% and 73.09% and 74.83% and 72.35% and 72.18% and 72.31%
same,"Glucose labeling, Sarc (C00213)",listed as D,0.0243% (2×) and 0.0369% (3×) and 0.0225%
same,"Glucose labeling, Ser (C00065)",listed as D,13.87% and 15.01% and 14.51% and 12.51% and 11.83% and 11.82%
same,"Glucose labeling, Shikimate (C00493)",listed as D,0.00% (5×) and 1.11e-14%
same,"Glucose labeling, Succ (C00042)",listed as D,0.0276% and 1.49% and 1.88% and 0.0331% and 0.0737% (2×)
same,"Glucose labeling, T (C00214)",listed as D,0.15% and 0.44% and 0.32% and 0.24% and 0.03% and 0.02%
same,"Glucose labeling, Thymine (C00178)",listed as D,0.02% (2×) and 0.00812% and 0.0214% and 0.0432% and 0.0317%
same,"Glucose labeling, Tyr (C00082)",listed as D,0.00% (5×) and 1.11e-14%
same,"Glucose labeling, Tyramine (C00483)",listed as D,0.00% (5×) and 1.11e-14%
same,"Glucose labeling, UDP (C00015)",listed as D,74.72% and 81.32% and 85.65% and 45.74% and 66.67% and 72.12%
same,"Glucose labeling, UDP-Glc (C00029)",listed as D,95.49% and 96.74% and 98.34% and 91.90% and 85.90% and 94.22%
same,"Glucose labeling, UDP-GlcNAc (C00043)",listed as D,91.41% and 90.20% and 90.50% and 87.89% and 87.54% and 87.94%
same,"Glucose labeling, UMP (C00105)",listed as D,79.30% and 82.81% and 83.09% and 50.51% and 65.12% and 69.81%
same,"Glucose labeling, UTP (C00075)",listed as D,90.44% and 89.69% and 89.62% and 94.73% and 88.15% and 87.27%
same,"Glucose labeling, Uracil (C00106)",listed as D,0.0737% (3×) and 0.06% and 0.05% and 0.065%
same,"Glucose labeling, Uric Acid (C00366)",listed as D,0.00% (4×) and -2.22e-14% (2×)
same,"Glucose labeling, Urocanate (C00785)",listed as D,0.00% (5×) and 1.11e-14%
same,"Glucose labeling, Vit-C (C00072)",listed as D,0.00% (4×) and 1.11e-14% (2×)
same,"Glucose labeling, Xanthine (C00385)",listed as D,0.10% (2×) and 0.12% (3×) and 0.08%
same,"Relative level, Isocaproate",listed as D,1.0 (2×) and 0.8 and 0.9 (3×)
same,"Relative level, Lac",listed as D,1.1 and 0.9 and 1.0 and 0.446 and 0.548 and 0.7
same,"Relative level, Leu/Ile",listed as D,1.0 and 1.3 and 1.5 and 0.8 (2×) and 0.9
same,"Relative level, Lys",listed as D,1.2 (2×) and 1.5 and 0.8 (2×) and 0.9
same,"Relative level, Mal",listed as D,0.8 and 1.0 and 1.4 and 0.339 and 0.53 and 0.65
same,"Relative level, Met",listed as D,1.0 and 1.3 and 1.4 and 0.8 (2×) and 0.9
same,"Relative level, N-Carbamoyl-L-aspartate",listed as D,0.7 and 1.5 and 2.9 and 0.5
same,"Relative level, NAD+",listed as D,0.8 and 1.1 (2×) and 1.3 and 0.553 and 0.7
same,"Relative level, NADP+",listed as D,1.6 and 0.273
same,"Relative level, Nicotinamide",listed as D,1.3 and 1.4 and 1.2 and 0.7 and 0.743 and 0.527
same,"Relative level, Ornithine",listed as D,1.6 and 0.9 and 1.1 and 0.8 (2×) and 1.0
same,"Relative level, Orotate",listed as D,0.468 and 0.9 and 0.8 and 0.0556 and 0.0189
same,"Relative level, Orotidine",listed as D,1.2 and 1.6 and 1.5 and 0.8 (2×) and 0.9
same,"Relative level, P-Choline",listed as D,1.0 and 1.1 and 1.4 and 0.5 (2×) and 0.65
same,"Relative level, P-Creatine",listed as D,0.8 and 0.6 and 1.6 and 2.2 and 1.2 and 1.5
same,"Relative level, P-EtA",listed as D,0.9 and 0.452 and 1.3 and 0.5 and 0.6 and 0.8
same,"Relative level, P-Ser",listed as D,1.2 and 1.3 (2×) and 0.3 and 0.317 and 0.334
same,"Relative level, Palmitate",listed as D,1.1 (4×) and 0.85 and 0.9
same,"Relative level, Pantothenate",listed as D,1.2 and 1.6 and 1.7 and 0.9 (3×)
same,"Relative level, Phe",listed as D,1.1 and 1.4 and 1.6 and 0.9 (2×) and 1.0
same,"Relative level, Pipecolate",listed as D,1.2 and 1.1 and 1.4 and 0.8 and 0.7 and 0.9
same,"Relative level, Pro",listed as D,1.0 and 1.3 (2×) and 0.8 (2×) and 0.753
same,"Relative level, Pro-OH",listed as D,1.1 and 1.2 and 1.3 and 0.8 (2×) and 0.75
same,"Relative level, Pyr",listed as D,0.171 and 2.0 and 11.3 and 1.7 and 3.4 and 3.3
same,"Relative level, R5P",listed as D,0.9 and 0.4 and 2.2 and 0.2
